Values quoted from earlier work in patent publication US20030056896A1, “Effective therapy for epilepsies” (priority 1995, published 2003).
Where two headings read alike, the source gives them in different places.

solubility (in water)	solubility (gastrointestinal pH range of 1 to 8)	SMILES
practically insoluble in water		NC(=O)N1c2ccccc2C=Cc2ccccc21 [carbamazepine]
	practically insoluble	O=C1NC(=O)C(c2ccccc2)(c2ccccc2)N1 [phenytoin]
